Laboratory results reported in the OPERA property sets (Mansouri et al. 2018).

Conditions: not given
For `CCOC(=O)[C@@H](C)Br`, the boiling point was 160 °C. For `Cl[Si](Cl)(Cl)CCc1ccccc1`, the boiling point was 242 °C. Work on `CC1(O)CCC(C(C)(C)O)CC1` (stereo not given) yielded a melting point of 158 °C. In the case of `CCCCCCCCCCCCCCCC(CCCC)c1ccccc1` (stereo not given), the melting point is reported as 30.2 °C. For `CCCCCCCCOC(=O)CCCCC(=O)OCCCCCCCC`, the log10 Henry constant (atm·m³/mol) was -6.36, the log10 vapour pressure (mmHg) was -6.07 and the melting point was -70 °C. `CCCC=C(CCCC)CCCC` showed a boiling point of 216 °C. `CCCSC(C)C` gave a boiling point of 132 °C. With `CCOC(=O)C1CCCCC1` the boiling point was 196 °C. `O=C1OC(=O)c2c(Br)c(Br)c(Br)c(Br)c21` gave a melting point of 275 °C. `Cc1c(Cl)cc(Cl)c(Cl)c1Cl` gave a boiling point of 276 °C and a melting point of 94 °C. `O=C(c1ccccc1)c1ccccc1C(F)(F)F` gave a melting point of 61 °C. In the case of `C=CC(=O)OCCOC`, the ready biodegradability is reported as “readily biodegradable”. Work on `NC(=O)OCC(COC(N)=O)c1ccccc1` yielded a melting point of 152 °C. Molecule `O=CC1CCCC1` has a boiling point of 134 °C. Molecule `CCC=C(C)C=O` has a boiling point of 136 °C. Molecule `c1ccc(CCCC2CCCC2)cc1` has a boiling point of 272 °C. In the case of `CCCCCCCCCCCCCCCC=O`, the melting point is reported as 35 °C. `CCCCc1ccc(C(=O)O)cc1` showed a melting point of 106 °C. With `COc1ccc(CN(CCN(C)C)c2ncccn2)cc1.Cl` the melting point was 174 °C. With `Brc1cccc(Oc2ccccc2)c1` the log10 Koa was 7.36. With `Cc1ccoc1` the boiling point was 66 °C. With `Clc1cc2oc3cc(Cl)c(Cl)cc3c2cc1Cl` the log10 Henry constant (atm·m³/mol) was -4.78, the log10 Koa was 10 and the melting point was 227 °C. Work on `c1ccc(C(c2ccccc2)(c2ccccc2)N2CCOCC2)cc1` yielded a melting point of 175 °C. In the case of `ClC=CCCl`, the ready biodegradability is reported as “not readily biodegradable”. Molecule `COc1c(C(C)(C)C)cc([N+](=O)[O-])c(C)c1[N+](=O)[O-]` has a melting point of 85 °C. Molecule `Clc1cncc(Cl)n1` has a melting point of 56.5 °C. Work on `Cc1ccc2nc(-c3ccc(N)cc3)sc2c1` yielded a boiling point of 434 °C and a melting point of 195 °C. `NC(=O)Cc1ccccc1` showed a melting point of 157 °C. Work on `CCOC(=O)C=Cc1ccccc1` yielded a boiling point of 271 °C, a log10 vapour pressure (mmHg) of -2.49 and a melting point of 7 °C. Work on `CCC(C)CO` (stereo not given) yielded a boiling point of 128 °C, a log10 Henry constant (atm·m³/mol) of -4.85 and a log10 vapour pressure (mmHg) of 0.494. In the case of `OC[C@@H]1CCCCN1`, the melting point is reported as 69 °C. With `FC(F)(Br)C(F)(F)C(F)(F)C(F)(F)C(F)(F)C(F)(F)C(F)(F)C(F)(F)Br` the boiling point was 180 °C. Work on `CC1=CC[C@@H](C(C)C)CC1` yielded a boiling point of 174 °C. `COc1ccc(C(C)=O)cc1OC` gave a boiling point of 287 °C and a melting point of 51 °C. In the case of `c1ccc(C2(c3ccccc3)CC2C2=NCCN2)cc1` (stereo not given), the melting point is reported as 104 °C. In the case of `CC(C)(C)c1ccc(N)cc1`, the boiling point is reported as 241 °C and the melting point is reported as 17 °C. Molecule `Nc1c(I)cc(I)c(C(=O)N(CCC(=O)O)c2ccccc2)c1I` has a melting point of 134 °C. Molecule `C=CC[C@]1(O)CC[C@H]2[C@@H]3CCC4=CCCC[C@@H]4[C@H]3CC[C@@]21C` has a melting point of 80 °C. Molecule `O=C(O)c1ccccc1-c1ccc(C(F)(F)F)cc1` has a melting point of 170 °C. For `CCCOC(C)C`, the boiling point was 83 °C. In the case of `CC(=O)C(C)(C)O`, the boiling point is reported as 140 °C and the log10 vapour pressure (mmHg) is reported as 0.792. Work on `NNC(=O)c1cccc(Br)c1` yielded a melting point of 158 °C. Work on `CCCCCCCCCCCCCCCCCCCCCCCC` yielded a boiling point of 391 °C, a log10 biodegradation half-life (days) of 2.06 and a log10 vapour pressure (mmHg) of -5.39. For the same molecule, the melting point was 54 °C and the ready biodegradability was “readily biodegradable”. Work on `CC(C)c1ccccc1-c1ccccc1` yielded a log10 vapour pressure (mmHg) of -3.3. With `Clc1ccc(Cl)c2c(Cl)ccc(Cl)c12` the log10 Koa was 8.45. In the case of `Clc1ccc(Oc2ccccc2)c(Cl)c1`, the log10 vapour pressure (mmHg) is reported as -3.04. `Cc1ccc2c(c1)CCCC2` gave a boiling point of 229 °C and a melting point of -40 °C. Molecule `O[C@H]1C=CCCC1` has a boiling point of 164 °C. Work on `Cc1cc(Cl)cc(Cl)c1` yielded a boiling point of 202 °C and a melting point of 26 °C. Molecule `CCOS(C)(=O)=O` has a boiling point of 214 °C and a log10 vapour pressure (mmHg) of -0.686. For `CC(C)C1CCCC1`, the boiling point was 126 °C, the log10 vapour pressure (mmHg) was 1.21 and the melting point was -111 °C. In the case of `OCc1ccncc1`, the melting point is reported as 53 °C. Work on `CCOC(CC)(OCC)OCC` yielded a boiling point of 171 °C. With `Oc1cccc(Cl)c1Cl` the boiling point was 206 °C, the log10 Koc (L/kg) was 2.66 and the log10 vapour pressure (mmHg) was -1.24. The melting point was 58 °C and the ready biodegradability was “not readily biodegradable”. `C#CC(C)=O` gave a boiling point of 84 °C. With `CCCCCCCCC(=O)CC` the boiling point was 227 °C and the melting point was 12 °C. For `CCCCCCCCCCCCCC(CCCCCCCCCCCC)CCCCCCCCCCCC`, the melting point was 13.7 °C. `O=C1OCc2ccccc21` showed a boiling point of 290 °C, a log10 vapour pressure (mmHg) of -2.7 and a melting point of 75 °C. The ready biodegradability was “readily biodegradable”. Molecule `CC(CCO)CCCC(C)(C)O` (stereo not given) has a boiling point of 265 °C. Molecule `CCOP(=S)(OCC)SCSc1ccc(Cl)cc1` has a log10 Koc (L/kg) of 4.66 and a log10 vapour pressure (mmHg) of -6.52. In the case of `CC(C)(C)c1ccc(C(O)CCCN2CCC(C(O)(c3ccccc3)c3ccccc3)CC2)cc1` (stereo not given), the melting point is reported as 147 °C. Molecule `BrCI` has a boiling point of 140 °C. With `CCN1CN(CC)CN(CC)C1` the boiling point was 208 °C, the melting point was 70 °C and the ready biodegradability was “readily biodegradable”. Work on `CCc1ccc(CC)cc1` yielded a boiling point of 184 °C, a log10 vapour pressure (mmHg) of 0.0253 and a melting point of -42.8 °C. The ready biodegradability was “not readily biodegradable”. With `CCOC(=O)CC(C(C)=O)C(=O)OCC` (stereo not given) the boiling point was 255 °C. With `C[Si](C)(C)O[Si](C)(C)C` the boiling point was 99 °C, the log10 vapour pressure (mmHg) was 1.62 and the melting point was -66 °C. In the case of `CCCCc1ccc2ccccc2c1`, the boiling point is reported as 292 °C and the melting point is reported as -5 °C. For `CC(C)(C)CC(C)(C)c1ccc(O)c(Cc2ccc(Cl)cc2Cl)c1`, the melting point was 78 °C. `Nc1ccc(/N=N/c2ccccc2)cc1` gave a boiling point of 366 °C, a log10 Koc (L/kg) of 2.79 and a log10 vapour pressure (mmHg) of -5.85. For the same molecule, the melting point was 127 °C and the ready biodegradability was “not readily biodegradable”. With `CCOc1ccc(NC(=O)OC(C)C)cc1OCC` the log10 vapour pressure (mmHg) was -4.2 and the melting point was 100 °C. `CCC(CC)C(C)(C)C` showed a boiling point of 134 °C, a log10 vapour pressure (mmHg) of 1.05 and a melting point of -99.3 °C. For `COc1ccccc1CC(=O)O`, the melting point was 124 °C. For `C=CCc1ccccc1OCC(O)CNC(C)C` (stereo not given), the melting point was 108 °C. `CC(C)(N=C=O)c1cccc(C(C)(C)N=C=O)c1` showed a log10 vapour pressure (mmHg) of -2.49. With `O=C(O)C(F)(F)C(F)F` the boiling point was 134 °C. Molecule `CCC(CC)c1ccccc1` has a boiling point of 188 °C. With `c1ccc2ocnc2c1` the boiling point was 182 °C and the melting point was 31 °C. `S=C1SCN(Cc2ccccc2)CN1Cc1ccccc1` gave a melting point of 102 °C. For `NCCCCCCN`, the boiling point was 205 °C, the log10 vapour pressure (mmHg) was -0.928 and the melting point was 41.5 °C. For the same molecule, the ready biodegradability was “readily biodegradable”. `Clc1ccccc1-c1nnc(-c2ccccc2Cl)nn1` showed a log10 Koc (L/kg) of 4.66, a log10 vapour pressure (mmHg) of -9.01 and a melting point of 182 °C. Molecule `CCCC1CCCC1` has a boiling point of 131 °C, a log10 vapour pressure (mmHg) of 1.09 and a melting point of -117 °C. `CC(=O)NC(Cc1ccccc1)C(=O)O` (stereo in doubt) gave a melting point of 172 °C. In the case of `NC(=O)c1cccc(N)c1`, the melting point is reported as 116 °C. `C[C@]12CC[C@@H](O)C[C@@H]1CC[C@@H]1[C@@H]2CC[C@]2(C)C=CC[C@@H]12` gave a melting point of 143 °C. Work on `CC(=O)c1ccc(C)cc1O` yielded a boiling point of 245 °C and a melting point of 21 °C. `COC(=O)COc1ccc(Cl)cc1Cl` gave a log10 vapour pressure (mmHg) of -2.64 and a melting point of 119 °C. For `CCCCCCCC(=O)Cl`, the boiling point was 196 °C and the melting point was -63 °C. Molecule `CCOC(OCC)C(Cl)(Cl)Cl` has a boiling point of 197 °C. `Nc1cc(Cl)cc(Cl)c1` gave a boiling point of 261 °C, a log10 Koc (L/kg) of 2.49 and a melting point of 52 °C. The ready biodegradability was “not readily biodegradable”. Molecule `O=C1c2ccc(O)cc2C(=O)c2cc(O)ccc21` has a melting point of 354 °C. Molecule `O=C1c2ccccc2C(=O)c2c1ccc(O)c2O` has a boiling point of 430 °C, a log10 vapour pressure (mmHg) of -9.06 and a melting point of 290 °C. `Brc1ccc(Oc2c(Br)cc(Br)cc2Br)c(Br)c1` gave a logP of 7.24. Molecule `CCC(O)CO[N+](=O)[O-]` (stereo not given) has a log10 Henry constant (atm·m³/mol) of -6.76. With `Clc1cccc(Cl)c1-c1ccccc1` the log10 Henry constant (atm·m³/mol) was -3.64. With `c1ccc2c(c1)NCCN2` the boiling point was 289 °C and the melting point was 99 °C. Molecule `CCOCC` has a boiling point of 34.6 °C, a log10 Henry constant (atm·m³/mol) of -2.91 and a log10 Koa of 2.19. The log10 vapour pressure (mmHg) was 2.73, the melting point was -116 °C and the ready biodegradability was “not readily biodegradable”. `CC(=O)OCC(=O)[C@H]1CC[C@H]2[C@@H]3CC=C4C[C@@H](O)CC[C@]4(C)[C@H]3CC[C@]12C` showed a melting point of 184 °C. `CCOC(=O)CCC(C)C` showed a boiling point of 163 °C. Molecule `CCCSC(=O)N(CCC)CCC` has a log10 Koc (L/kg) of 2.33 and a log10 vapour pressure (mmHg) of -1.98. With `Cn1cncc1C[C@H]1COC(=O)[C@@H]1[C@@H](O)c1ccccc1` the melting point was 179 °C. `c1ccc2c(c1)ccc1nc3c(ccc4ccccc43)cc12` showed a melting point of 226 °C. In the case of `CC(C)(C)c1cc(-n2nc3ccccc3n2)c(O)c(C(C)(C)C)c1`, the ready biodegradability is reported as “not readily biodegradable”. `C1CC2CCCC2C1` (stereo not given) showed a boiling point of 139 °C. Work on `c1cc2c3c(c4ccc5ccccc5c4cc3c1)CC2` yielded a melting point of 174 °C. In the case of `CCCCCCCCCCCCCC(=O)OC(=O)CCCCCCCCCCCCC`, the melting point is reported as 53.4 °C.

Same assay, conditions: fish
Work on `Clc1cc2oc3cc(Cl)c(Cl)cc3c2cc1Cl` yielded a log10 BCF of 3.61 and a log10 biotransformation half-life (days) of 0.56. `Oc1cccc(Cl)c1Cl` gave a log10 BCF of 1.13. For `CCc1ccc(CC)cc1`, the log10 BCF was 2.68 and the log10 biotransformation half-life (days) was -0.01. With `Brc1ccc(Oc2c(Br)cc(Br)cc2Br)c(Br)c1` the log10 BCF was 6.36. For `CCOCC`, the log10 BCF was 0.73 and the log10 biotransformation half-life (days) was -0.7. `c1ccc2c(c1)ccc1nc3c(ccc4ccccc43)cc12` showed a log10 BCF of 2.03 and a log10 biotransformation half-life (days) of -0.14. With `CC(C)(C)c1cc(-n2nc3ccccc3n2)c(O)c(C(C)(C)C)c1` the log10 biotransformation half-life (days) was 0.89.
